The target of the experiment is T1, MST1 (Homo sapiens, UniProt Q13043).
T1 sequence (Q13043 1-487): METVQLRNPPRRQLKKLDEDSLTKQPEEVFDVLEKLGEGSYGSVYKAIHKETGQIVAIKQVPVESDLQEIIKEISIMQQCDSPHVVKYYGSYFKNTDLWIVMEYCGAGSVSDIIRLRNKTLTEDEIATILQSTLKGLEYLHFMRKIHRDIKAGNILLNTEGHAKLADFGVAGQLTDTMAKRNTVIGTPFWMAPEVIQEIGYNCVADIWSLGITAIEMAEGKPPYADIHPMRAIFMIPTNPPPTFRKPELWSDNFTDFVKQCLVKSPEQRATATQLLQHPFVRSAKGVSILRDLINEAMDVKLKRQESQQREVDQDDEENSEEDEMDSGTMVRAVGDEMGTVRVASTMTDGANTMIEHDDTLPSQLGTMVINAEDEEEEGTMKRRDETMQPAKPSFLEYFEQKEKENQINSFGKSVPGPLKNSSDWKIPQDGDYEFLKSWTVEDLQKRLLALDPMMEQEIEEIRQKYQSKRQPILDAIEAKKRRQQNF
Description: In vitro measurement of MST1 inhibition (Z′-Lyte kinase assay). Format: biochemical. Here is the method:
Assays were performed in low-volume 384-well black proxiplates (Perkin Elmer, PE-Blk-Proxi-6008269). Eight compounds were first diluted into LDV (Echo) plates using a Multiprobe, at a starting concentration of 1 mM compound in 100% DMSO. Using the ECHO, 75 nl compound was pinged into 384-well proxiplates. The starting concentration of compound in each assay plate is 7.5 uM, followed by 3-fold dilutions, to give quadruplicate ten-point concentration curves. A 3× solution of MST1 enzyme in kinase buffer (Invitrogen, PR4940C) was added to wells containing compound or DMSO controls, followed by a 10 minute preincubation step. Reactions were initiated by adding 5 μL of a mixture of ATP and Z′-Lyte S/T Pep 7 (Invitrogen, PV3180) and proceeded at RT for 1 hour. […] At the end of the kinase reaction, 10 ul of developing solution (Invitrogen, catalog #PR4876B; development buffer A diluted […] in development buffer B) was added to each well and incubated at RT for 1 hr. All wells were read on a Tecan at 400 nm excitation and 460 nm/530 nm emission. Plus and minus enzyme controls were used to calculate percent inhibition and IC50 curves were generated using Excel.

Setting [1] is: 1 μM ATP, read-out: IC50 (μM) 1 μM ATP.
Where [2] appears, read: 50 μM ATP, read-out: IC50 (μM) 50 μM ATP.

A word on the IC50: it is the concentration needed to halve the response being measured.

The structures appear in SMILES notation. Where two headings read alike, the source gives them in different places.

For the compound `CN(C1CCC1)S(=O)(=O)c1ccc(-c2cnc(N)c(-c3ccc4c(c3)CCNC4=O)n2)cc1` [4-(5-amino-6-(1-oxo-1,2,3,4-tetrahydroisoquinolin-6-yl)pyrazin-2-yl)-N-cyclobutyl-N-methylbenzenesulfonamide], the IC50 was < 0.01 µM under setting [1] and < 0.01 µM under setting [2].

In the case of `CN(C1CC1)S(=O)(=O)c1ccc(-c2cnc(N)c(-c3ccc4c(c3)CCNC4=O)n2)cc1F` [4-(5-amino-6-(1-oxo-1,2,3,4-tetrahydroisoquinolin-6-yl)pyrazin-2-yl)-N-cyclopropyl-2-fluoro-N-methylbenzenesulfonamide], the IC50 is < 0.01 µM under setting [1] and < 0.01 µM under setting [2].

Turning to `CCN(C1CC1)S(=O)(=O)c1ccc(-c2cnc(N)c(-c3ccc4c(c3)CCNC4=O)n2)cc1` [4-(5-amino-6-(1-oxo-1,2,3,4-tetrahydroisoquinolin-6-yl)pyrazin-2-yl)-N-cyclopropyl-N-ethylbenzenesulfonamide], the IC50 was < 0.05 µM under setting [1] and < 0.01 µM under setting [2].

Take `[2H]C([2H])([2H])N(C1CC1)S(=O)(=O)c1ccc(-c2cnc(N)c(-c3ccc4c(c3)CCNC4=O)n2)cc1` [4-(5-amino-6-(1-oxo-1,2,3,4-tetrahydroisoquinolin-6-yl)pyrazin-2-yl)-N-cyclopropyl-N-trideuteromethylbenzenesulfonamide]: the IC50 is < 0.01 µM under setting [1] and < 0.01 µM under setting [2].

For `Nc1ncc(-c2ccc(S(=O)(=O)NC3CC3)cc2)nc1-c1ccc2c(c1)CCNC2=O` [4-(5-amino-6-(1-oxo-1,2,3,4-tetrahydroisoquinolin-6-yl)pyrazin-2-yl)-N-cyclopropylbenzenesulfonamide], the IC50 is < 0.01 µM under setting [1] and < 0.01 µM under setting [2].

For the compound `CCN(C)S(=O)(=O)c1ccc(-c2cnc(N)c(-c3ccc4c(c3)CCNC4=O)n2)cc1C` [4-(5-amino-6-(1-oxo-1,2,3,4-tetrahydroisoquinolin-6-yl)pyrazin-2-yl)-N-ethyl-N,2-dimethylbenzenesulfonamide], the IC50 runs as follows: under setting [1], < 0.01 µM; under setting [2], < 0.01 µM.

For the compound `CCN(C)S(=O)(=O)c1ccc(-c2cnc(N)c(-c3ccc4c(c3)CCNC4=O)n2)cc1` [4-(5-amino-6-(1-oxo-1,2,3,4-tetrahydroisoquinolin-6-yl)pyrazin-2-yl)-N-ethyl-N-methylbenzenesulfonamide], the half-maximal inhibitory concentration (IC50) was < 0.01 µM under setting [1] and < 0.01 µM under setting [2].

For `CCNS(=O)(=O)c1ccc(-c2cnc(N)c(-c3ccc4c(c3)CCNC4=O)n2)cc1` [4-(5-amino-6-(1-oxo-1,2,3,4-tetrahydroisoquinolin-6-yl)pyrazin-2-yl)-N-ethylbenzenesulfonamide], the IC50 was < 0.01 µM under setting [1] and < 0.01 µM under setting [2].

Regarding `C[C@@H]1C[C@H]1N(C)S(=O)(=O)c1ccc(-c2cnc(N)c(-c3ccc4c(c3)CCNC4=O)n2)cc1` [4-(5-amino-6-(1-oxo-1,2,3,4-tetrahydroisoquinolin-6-yl)pyrazin-2-yl)-N-methyl-N-((1R,2R)-2-methylcyclopropyl)benzenesulfonamide], the IC50 under setting [1] is < 0.01 µM and the IC50 under setting [2] was < 0.01 µM.

For the compound `CCCN(C)S(=O)(=O)c1ccc(-c2cnc(N)c(-c3ccc4c(c3)CCNC4=O)n2)cc1` [4-(5-amino-6-(1-oxo-1,2,3,4-tetrahydroisoquinolin-6-yl)pyrazin-2-yl)-N-methyl-N-propylbenzenesulfonamide], the IC50 by setting is: under setting [1], < 0.01 µM; under setting [2], < 0.01 µM.

For `N#Cc1ccc(-c2cnc(N)c(-c3ccc4c(c3)CCNC4=O)n2)cc1` [4-(5-amino-6-(1-oxo-1,2,3,4-tetrahydroisoquinolin-6-yl)pyrazin-2-yl)benzonitrile], the IC50 under setting [1] is < 0.05 µM and the IC50 under setting [2] is < 0.01 µM.

Consider `CN(C1CC1)S(=O)(=O)c1ccc(-c2cnc(N)c(-c3ccc4c(=O)[nH]ccc4c3)n2)cc1` [4-(5-amino-6-(1-oxo-1,2-dihydroisoquinolin-6-yl)pyrazin-2-yl)-N-cyclopropyl-N-methylbenzenesulfonamide], for which the IC50 reads like this: under setting [1], < 0.01 µM; under setting [2], < 0.01 µM.

Take `CN(C1CC1)S(=O)(=O)c1ccc(-c2cnc(N)c(-c3ccc4c(c3)CCCNC4=O)n2)cc1` [4-(5-amino-6-(1-oxo-2,3,4,5-tetrahydro-1H-benzo[c]azepin-7-yl)pyrazin-2-yl)-N-cyclopropyl-N-methylbenzenesulfonamide]: the IC50 under setting [1] is < 0.01 µM and the IC50 under setting [2] is < 0.01 µM.

For `CCN(C)S(=O)(=O)c1ccc(-c2cnc(N)c(-c3ccc4c(c3)CCCNC4=O)n2)cc1` [4-(5-amino-6-(1-oxo-2,3,4,5-tetrahydro-1H-benzo[c]azepin-7-yl)pyrazin-2-yl)-N-ethyl-N-methylbenzenesulfonamide], the IC50 reads like this: under setting [1], < 0.05 µM; under setting [2], < 0.01 µM.

With `Cc1cc(-c2cnc(N)c(-c3ccc4c(c3)C3(CC3)CNC4=O)n2)ccc1S(=O)(=O)NC1CC1` [4-(5-amino-6-(1′-oxo-2′,3′-dihydro-1′H-spiro[cyclopropane-1,4′-isoquinolin]-6′-yl)pyrazin-2-yl)-N-cyclopropyl-2-methylbenzenesulfonamide], the IC50 under setting [1] was < 0.01 µM and the IC50 under setting [2] was < 0.01 µM.

Regarding `CN(C1CC1)S(=O)(=O)c1ccc(-c2cnc(N)c(-c3ccc4c(c3)C3(CC3)CNC4=O)n2)cc1` [4-(5-amino-6-(1′-oxo-2′,3′-dihydro-1′H-spiro[cyclopropane-1,4′-isoquinolin]-6′-yl)pyrazin-2-yl)-N-cyclopropyl-N-methylbenzenesulfonamide], the IC50 by setting is: under setting [1], < 0.01 µM; under setting [2], < 0.01 µM.

Turning to `Nc1ncc(-c2ccc(S(=O)(=O)NC3CC3)cc2)nc1-c1ccc2c(c1)C1(CC1)CNC2=O` [4-(5-amino-6-(1′-oxo-2′,3′-dihydro-1′H-spiro[cyclopropane-1,4′-isoquinolin]-6′-yl)pyrazin-2-yl)-N-cyclopropylbenzenesulfonamide], the IC50 runs as follows: under setting [1], < 0.01 µM; under setting [2], < 0.01 µM.

On to `N#Cc1ccc(-c2cnc(N)c(-c3ccc4c(c3)C3(CC3)CNC4=O)n2)cc1` [4-(5-amino-6-(1′-oxo-2′,3′-dihydro-1′H-spiro[cyclopropane-1,4′-isoquinolin]-6′-yl)pyrazin-2-yl)benzonitrile], for which the IC50 by setting is: under setting [1], < 0.05 µM; under setting [2], < 0.01 µM.

In the case of `CN1CCc2cc(-c3nc(-c4ccc(S(=O)(=O)N(C)C5CC5)cc4)cnc3N)ccc2C1=O` [4-(5-amino-6-(2-methyl-1-oxo-1,2,3,4-tetrahydroisoquinolin-6-yl)pyrazin-2-yl)-N-cyclopropyl-N-methylbenzenesulfonamide], the IC50 is < 0.15 µM under setting [1] and < 0.05 µM under setting [2].

With `CC1(C)NC(=O)c2ccc(-c3nc(-c4ccc(S(=O)(=O)NC5CC5)cc4)cnc3N)cc21` [4-(5-amino-6-(3,3-dimethyl-1-oxoisoindolin-5-yl)pyrazin-2-yl)-N-cyclopropylbenzenesulfonamide], the IC50 is < 0.05 µM under setting [1] and < 0.01 µM under setting [2].

For `CN1Cc2cc(-c3nc(-c4ccc(S(=O)(=O)N(C)C5CC5)cc4)cnc3N)ccc2C(=O)N1` [4-(5-amino-6-(3-methyl-1-oxo-1,2,3,4-tetrahydrophthalazin-6-yl)pyrazin-2-yl)-N-cyclopropyl-N-methylbenzenesulfonamide], the IC50 by setting is: under setting [1], < 0.05 µM; under setting [2], < 0.01 µM.

Turning to `CC1CNc2cc(-c3nc(-c4ccc(S(=O)(=O)N(C)C5CC5)cc4)cnc3N)ccc2C(=O)N1` (centres unmarked) [4-(5-amino-6-(3-methyl-5-oxo-2,3,4,5-tetrahydro-1H-benzo[e][1,4]diazepin-8-yl)pyrazin-2-yl)-N-cyclopropyl-N-methylbenzenesulfonamide], the IC50 under setting [1] was < 0.01 µM and the IC50 under setting [2] is < 0.01 µM.

As to `Nc1ncc(-c2ccc(S(=O)(=O)NC3CC3)cc2)nc1-c1ccc2c(c1)C1(CC1)NC2=O` [4-(5-amino-6-(3′-oxospiro[cyclopropane-1,1′-isoindolin]-6′-yl)pyrazin-2-yl)-N-cyclopropylbenzenesulfonamide], the IC50 runs as follows: under setting [1], < 0.05 µM; under setting [2], < 0.01 µM.

As to `[2H]C1([2H])CNC(=O)c2ccc(-c3nc(-c4ccc(S(=O)(=O)N(C)C5CC5)cc4)cnc3N)cc21` [4-(5-amino-6-(4,4-dideutero-1-oxo-1,2,3,4-tetrahydroisoquinolin-6-yl)pyrazin-2-yl)-N-cyclopropyl-N-methylbenzenesulfonamide], the half-maximal inhibitory concentration (IC50) under setting [1] was < 0.01 µM and the IC50 under setting [2] is < 0.01 µM.

For the compound `[2H]C1([2H])CNC(=O)c2ccc(-c3nc(-c4ccc(S(=O)(=O)N(C5CC5)C([2H])([2H])[2H])cc4)cnc3N)cc21` [4-(5-amino-6-(4,4-dideutero-1-oxo-1,2,3,4-tetrahydroisoquinolin-6-yl)pyrazin-2-yl)-N-cyclopropyl-N-trideuteromethyl-benzenesulfonamide], the IC50 is, setting by setting: under setting [1], < 0.01 µM; under setting [2], < 0.01 µM.

Values taken from patent publication US8440652B2, “MST1 kinase inhibitors and methods of their use” (Lexicon Pharmaceuticals, Inc., priority 2011, dated 2013).
